We go through one compound from patent publication US8889699B2, “5-fluorouracil derivative” (Delta-Fly Pharma, Inc., priority 2009, dated 2014).

This assay deals with T1, DPD (Rattus norvegicus, UniProt O89000).
T1 construct: the obtained supernatant was used as a DPD enzyme solution or an OPRT enzyme solution; from tissue; host or cells: liver of 8-week old SD rat; 105,000 g supernatant of homogenate
T1 sequence (O89000 1-1025): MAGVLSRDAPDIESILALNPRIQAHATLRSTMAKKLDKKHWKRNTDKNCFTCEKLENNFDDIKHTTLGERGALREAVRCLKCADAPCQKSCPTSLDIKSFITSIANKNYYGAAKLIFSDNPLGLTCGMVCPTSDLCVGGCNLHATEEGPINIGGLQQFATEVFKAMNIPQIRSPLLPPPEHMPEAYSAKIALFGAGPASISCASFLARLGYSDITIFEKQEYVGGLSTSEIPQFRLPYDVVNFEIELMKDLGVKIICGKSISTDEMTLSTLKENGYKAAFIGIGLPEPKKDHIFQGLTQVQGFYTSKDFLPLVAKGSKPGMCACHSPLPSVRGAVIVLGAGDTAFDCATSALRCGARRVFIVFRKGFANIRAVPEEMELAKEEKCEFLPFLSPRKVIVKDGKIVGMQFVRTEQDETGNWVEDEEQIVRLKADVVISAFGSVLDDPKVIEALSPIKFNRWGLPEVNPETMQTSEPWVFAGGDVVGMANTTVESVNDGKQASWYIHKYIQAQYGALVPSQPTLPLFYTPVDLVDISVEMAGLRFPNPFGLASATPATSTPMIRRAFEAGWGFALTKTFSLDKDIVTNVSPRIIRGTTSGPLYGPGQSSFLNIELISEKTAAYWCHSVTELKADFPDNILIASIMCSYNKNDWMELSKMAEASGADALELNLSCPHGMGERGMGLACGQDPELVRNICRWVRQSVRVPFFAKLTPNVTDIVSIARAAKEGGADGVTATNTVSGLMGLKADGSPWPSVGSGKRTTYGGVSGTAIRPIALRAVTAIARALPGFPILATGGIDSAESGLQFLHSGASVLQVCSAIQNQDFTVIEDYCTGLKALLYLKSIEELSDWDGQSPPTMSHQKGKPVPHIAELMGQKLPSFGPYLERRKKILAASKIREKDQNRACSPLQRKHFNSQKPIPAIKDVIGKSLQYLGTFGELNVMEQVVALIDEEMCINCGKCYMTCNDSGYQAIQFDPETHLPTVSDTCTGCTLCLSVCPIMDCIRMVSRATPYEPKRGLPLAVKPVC
The experiment in a line: DPD inhibitory action in vitro (enzyme reaction, tritium-labeled 5-FU as substrate). Format: biochemical. The procedure: The resulting product was diluted to concentrations of 1 mM, 100 μM, 10 μM, and 1 μM with a 10 mM potassium phosphate buffer solution (pH 6.0), thereby obtaining Test Liquids 1. The obtained Test Liquids 1 were separately added to the enzyme reaction solution described below to give final concentrations of 200 μM, 20 μM, 2 μM, and 0.2 μM. • (b) Test liquid preparation (2): As a DPD inhibitor, 5-chloro-2,4-dihydroxypyridine (CDHP; gimeracil) was dissolved to a concentration of 10 mM in a 10 mM potassium phosphate buffer solution (pH 6.0). The resulting product was diluted to concentrations of 1 mM, 100 μM, 10 μM, and 1 μM, thereby obtaining Test Liquids 2. The obtained Test Liquids 2 were separately added to the enzyme reaction solution to give final concentrations of 200 μM, 20 μM, 2 μM, and 0.2 μM. • (c) Test liquid preparation (3): As an OPRT inhibitor, citrazinic acid (Citra. A.) was dissolved to a concentration of 10 mM in 20 mM trishydroxyaminomethane-hydrochloric buffer solution (pH 8.0). Thereafter, the resulting product was diluted to concentrations of 1 mM, 100 μM, and 10 μM with a 10 mM potassium phosphate buffer solution, thereby obtaining Test Liquids (3). The obtained Test Liquids 3 were separately added to the enzyme reaction solution to give final concentrations of 200 μM, 20 μM, and 2 μM. • (d) Preparation of enzyme solution: The liver of an 8-week old SD rat was used as a DPD enzyme source, while human tumor cells that had been transplanted into a nude mouse and proliferated therein were used as an OPRT enzyme source. Specifically, immediately after a rat liver or successively-transplanted human tumor cells were extracted, a 50-mM tris-hydrochloric acid buffer solution (pH 8.0) containing 0.25 M saccharose, 5 mM magnesium chloride, and 1 mM dithreitol was added thereto to a concentration of 25% (w/v) and homogenized. Thereafter, ultracentrifugation was performed at 105,000 g for 60 minutes, and the obtained supernatant was used as a DPD enzyme solution or an OPRT enzyme solution. • (e) Enzyme reaction: A DPD enzyme reaction was carried out in accordance with the method of Tatsumi et al. (Gann, 78: 748-755 (1987)) using 5-FU labeled with tritium as a substrate. An OPRT enzyme reaction was carried out in accordance with the method of Shirasaka et al. (Cancer Res., 53: 4004-4009 (1993)) using 5-FU labeled with tritium as a substrate. Then, the activity of a control group (with no test compound) and test compound groups was measured. The percent inhibition of the test compound relative to DPD or OPRT was calculated using the following formula: [1-(the enzyme activity with the test compound/the enzyme activity of the control group)]×100(%).
The resulting product was diluted to concentrations of 1 mM, 100 μM, 10 μM, and 1 μM with a 10 mM potassium phosphate buffer solution (pH 6.0), thereby obtaining Test Liquids 1. The obtained Test Liquids 1 were separately added to the enzyme reaction solution described below to give final concentrations of 200 μM, 20 μM, 2 μM, and 0.2 μM. • (b) Preparation of enzyme solution: The liver of an 8-week old SD rat was used as a DPD enzyme source, while human tumor cells that had been transplanted into a nude mouse and proliferated therein were used as an OPRT enzyme source. Specifically, immediately after a rat liver or successively-transplanted human tumor cells were extracted, a 50-mM tris-hydrochloric acid buffer solution (pH 8.0) containing 0.25 M saccharose, 5 mM magnesium chloride, and 1 mM dithreitol was added thereto to a concentration of 25% (w/v) and homogenized. Thereafter, ultracentrifugation was performed at 105,000 g for 60 minutes, and the obtained supernatant was used as a DPD enzyme solution or an OPRT enzyme solution. • (c) Enzyme reaction: A DPD enzyme reaction was carried out in accordance with the method of Tatsumi et al. (Gann, 78: 748-755 (1987)) using 5-FU labeled with tritium as a substrate. […]

Where two headings read alike, the source gives them in different places.

A word on the inhibition: it is the drop in the measured response relative to a control, in per cent. Take `Oc1cc(O)c(Cl)cn1` [CDHP, 5-chloro-2,4-dihydroxypyridine, reference compound]: the inhibition at 0.2 µM was determined as 44.8% (0.2 μM, Table 2, read-out: DPD Inhibition (%)) and 40.8% (Conc. 0.2 μM, Table 1, read-out: DPD Inhibitory Activity: Inhibition). In addition, the inhibition at 2 µM (2 μM, Table 2, read-out: DPD Inhibition (%)) turned out to be 85.1% and the inhibition at 2 µM (Conc. 2 μM, Table 1, read-out: DPD Inhibitory Activity: Inhibition) was 80.7%. Also, the “DPD Inhibitory Activity: Activity” value came out at 0.597 nmol/mL/min (Conc. 0.2 μM, Table 1); 0.195 nmol/mL/min (Conc. 2 μM, Table 1); 0.074 nmol/mL/min (Conc. 20 μM, Table 1); 0.106 nmol/mL/min (Conc. 200 μM, Table 1). Moreover, testing at 20 µM (Conc. 20 μM, Table 1) gave an inhibition of 92.7%. In addition, under “Conc. 200 μM, Table 1”, the inhibition at 200 µM is 89.5%.
